Results on 27 compounds are retold here after EP0536419B1, “TRICYCLIC TRIAZOLE DERIVATIVES, PRODUCTION AND USE THEREOF” (TORAY INDUSTRIES, INC., priority 1991, dated 1992).

Counter-ions that a name gives are not always drawn.

The target in one experiment is T1, PAF receptor (Oryctolagus cuniculus, UniProt G1TEI7).
T1 construct: Cell membrane fraction of rabbit platelets was prepared; from tissue; host or cells: rabbit platelets (cell membrane fraction)
The experiment is described as follows: Binding test using [3H]-PAF (PAF receptor binding test). On the set-up: species or system rabbit. Conditions: rabbit platelet membrane fraction, [3H]-PAF 0.4 nM, 25°C, 60 minutes; read-out: Receptor Binding Inhibition IC50 (converted).

The next experiment has as its target rabbit platelets (Oryctolagus cuniculus, UniProt G1TEI7). Description: in vitro platelet agglutination inhibition test (PAF-induced). The note with it: rabbit platelet-rich plasma, PAF final concentration 10 ng/ml, 37°C; read-out: PAF-Induced Platelet Aggregation IC50 (converted). It is filed as cell-based.

By IC50 is commonly meant the concentration needed to halve the response being measured.

T1 sequence (G1TEI7 1-342): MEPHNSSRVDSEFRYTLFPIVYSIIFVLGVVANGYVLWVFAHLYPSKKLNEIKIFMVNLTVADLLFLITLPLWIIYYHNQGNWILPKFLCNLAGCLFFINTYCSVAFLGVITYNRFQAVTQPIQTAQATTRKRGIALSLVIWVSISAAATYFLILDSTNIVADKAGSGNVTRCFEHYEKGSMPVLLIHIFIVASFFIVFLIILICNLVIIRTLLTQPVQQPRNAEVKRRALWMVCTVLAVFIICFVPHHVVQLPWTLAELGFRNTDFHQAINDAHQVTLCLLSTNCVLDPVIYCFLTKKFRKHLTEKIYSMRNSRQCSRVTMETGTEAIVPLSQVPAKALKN
Chain of rabbit platelets (G1TEI7 1-342): as above
Protocol for PAF receptor: Binding Test Using [^3H]-PAF (PAF receptor binding test)
Cell membrane fraction of rabbit platelets was prepared in accordance with the method by Hwang et al (Biochemistry; 22; 4756, (1983)). In 10 mM Tris buffer containing 0.25% bovine serum albumin, 50 mg of this membrane fraction was suspended and tritium-labelled PAF [^3H]-PAF; 0.4 nM) and a test compound were added thereto. After incubating the resulting mixture at 25°C for 60 minutes, the mixture was subjected to filtration through a filter paper made of glass fibers. The filter paper was washed with cold Tris buffer three times and then transferred to a vial. A scintillator was added thereto and the dose of radioactivity was measured with a liquid scintillation counter. The inhibition rate (binding ability) of the test compound was calculated according to the following equation and IC50 values were determined by interpolation. Inhibition Rate (%) = {1 - [((A - B))/((C - B))]} x 100 [formula] (wherein A represents amount bound in the presence of the compound, B represents amount bound by non-specific binding which is the dose of [^3H]-PAF bound radioactivity in the presence of 1 µM of PAF, and C represents total amount bound which is the dose of [^3H]-PAF bound radioactivity.
As a control agent, WEB2086 (Japanese Laid-open Patent Application (Kokai) No. 65-176591) disclosed as a PAF-antagonist was used.
Protocol for rabbit platelets: To determine the PAF-antagonizing property of the compounds, the PAF-induced agglutination of rabbit platelets in vitro is utilized. To obtain platelet-rich plasma (PRP), venous blood is taken from rabbit auricular vein into a plastic centrifugal tube containing 1.0% sodium citrate solution. The ratio of sodium citrate solution to blood is 1:10. The obtained citrate-containing blood is centrifuged at 70 x g (625 rpm) at room temperature for 20 minutes and the PRP in the upper layer is transferred to another plastic tube. The remaining lower layer is further centrifuged at 1500 x g (2800 rpm) for 10 minutes and the platelet poor plasma (PPP) in the upper layer is recovered. The platelet agglutination is measured by using aggregometer commercially available from Niko Bioscience, Inc. An aliquote of the PRP is poured into a cubette for measurement. Immediately thereafter, aspirin, creatinin phosphate and creatinin phosphokinase are added to final concentrations of 0.1 mM, 7 mM and 45 U/ml, respectively. Then a solution of a test compound is added and the resulting mixture is stirred at 37°C for 2 minutes. To the resultant, PAF (final concentration: 10 ng/ml) is added to induce platelet aggregation. The platelet aggregation rate is calculated from the relative maximum value in each aggregation curve taking the transmittance of PPP as the maximum aggregation (100% aggregation). Using the aggregation rate when physiological saline was added as a control, the inhibition rate which was the ratio of the aggregation rate when the test compound was added to the control was calculated and the IC50 values were determined by interpolation.

On to `Cc1cccc(C(O)(c2ccccc2)C2CCN(CCCN3Cc4nnc(C)n4-c4ccccc43)CC2)c1` (stereo not drawn) [Compound 132, 4,5-dihydro-1-methyl-5-[3-[4-[hydroxyphenyl(3-tolyl)methyl]piperidin-1-yl]propyl] [1,2,4]triazolo[4,3-a]quinoxaline], for which the IC50 is 51.2 nM on PAF receptor and 70.9 nM on rabbit platelets.
In the case of `COc1cccc(C(O)(c2ccccc2)C2CCN(CCCN3Cc4nnc(C)n4-c4ccccc43)CC2)c1` (stereo not drawn) [Compound 133, 4,5-dihydro-1-methyl-5-[3-[4-[hydroxy(3-methoxyphenyl)phenylmethyl]piperidin-1-yl]propyl] [1,2,4]triazolo[4,3-a]quinoxaline], the IC50 on PAF receptor is 32.5 nM; at rabbit platelets, 120 nM.
Taken in the same sequence, the figures for `Cc1cccc(C(O)(c2cccc(C)c2)C2CCN(CCCN3Cc4nnc(C)n4-c4ccccc43)CC2)c1` [Compound 134, 4,5-dihydro-1-methyl-5-[3-[4-[hydroxybis(3-tolyl)methyl]piperidin-1-yl]propyl][1,2,4]triazolo[4,3-a]quinoxaline] were 9.58 nM and 97.8 nM.
For `COc1cccc(C(O)(c2cccc(OC)c2)C2CCN(CCCN3Cc4nnc(C)n4-c4ccccc43)CC2)c1` [Compound 135, 4,5-dihydro-1-methyl-5-[3-[4-[hydroxybis(3-methoxyphenyl)methyl]piperidin-1-yl]propyl] [1,2,4]triazolo[4,3-a]quinoxaline], the concentration for half-maximal inhibition (IC50) was 37.9 nM at PAF receptor and 1590 nM at rabbit platelets.
For the compound `COc1ccc(C(O)(c2ccc(OC)c(OC)c2)C2CCN(CCCN3Cc4nnc(C)n4-c4ccccc43)CC2)cc1OC` [Compound 138, 4,5-dihydro-1-methyl-5-[3-[4-[hydroxybis(3,4-dimethoxyphenyl)methyl]piperidin-1-yl]propyl] [1,2,4]triazolo[4,3-a]quinoxaline], the values for the IC50 at PAF receptor and on rabbit platelets were 1170 nM and 1320 nM, respectively.
Turning to `COc1cccc(C(=C2CCN(CCCN3Cc4nnc(C)n4-c4ccccc43)CC2)c2ccccc2)c1` [Compound 140, 4,5-dihydro-1-methyl-5-[3-[4-[(3-methoxyphenyl)phenylmethylene]piperidin-1-yl]propyl] [1,2,4]triazolo[4,3,a]quinoxaline], the IC50 at PAF receptor was 11.9 nM; at rabbit platelets it was 475 nM.
`COc1ccc(C(=C2CCN(CCCN3Cc4nnc(C)n4-c4ccccc43)CC2)c2ccccc2)cc1OC` [Compound 142, 4,5-dihydro-1-methyl-5-[3-[4-[(3,4-dimethoxyphenyl)phenylmethylene]piperidin-1-yl]propyl] [1,2,4]triazolo[4,3,a]quinoxaline]: the IC50 on PAF receptor is 162 nM; at rabbit platelets it was 952 nM.
As to `COc1cccc(C(=C2CCN(CCCN3Cc4nnc(C)n4-c4ccccc43)CC2)c2cccc(OC)c2)c1` [Compound 143, 4,5-dihydro-1-methyl-5-[3-[4-[bis(3-methoxyphenyl)methylene]piperidin-1-yl]propyl] [1,2,4]triazolo[4,3,a]quinoxaline], the figures for the half-inhibitory concentration (IC50) on PAF receptor and at rabbit platelets were 74.7 nM and 411 nM, respectively.
In the same order, the values of `COc1ccccc1C(=C1CCN(CCCN2Cc3nnc(C)n3-c3ccccc32)CC1)c1ccccc1OC` [Compound 145, 4,5-dihydro-1-methyl-5-[3-[4-[bis(2-methoxyphenyl)methylene]piperidin-1-yl]propyl] [1,2,4]triazolo[4,3,a]quinoxaline] are 411 nM and 1700 nM.
As for `Cc1cccc(C(=C2CCN(CCCN3Cc4nnc(C)n4-c4ccccc43)CC2)c2cccc(C)c2)c1` [Compound 147, 4,5-dihydro-1-methyl-5-[3-[4-[bis(3-tolyl)methylene]piperidin-1-yl]propyl] [1,2,4]triazolo[4,3,a]quinoxaline], the results for the half-maximal inhibitory concentration (IC50) at PAF receptor and at rabbit platelets were 67.5 nM and 173 nM, respectively.
In the case of `COc1ccc(C(=C2CCN(CCCN3Cc4nnc(C)n4-c4ccccc43)CC2)c2ccc(OC)cc2)cc1` [Compound 148, 4,5-dihydro-1-methyl-5-[3-[4-[bis(4-methoxyphenyl)methylene]piperidin-1-yl]propyl] [1,2,4]triazolo[4,3,a]quinoxaline], the IC50 on PAF receptor was 54.1 nM; at rabbit platelets it was 597 nM.
Take `Cc1nnc2n1-c1ccccc1N(CCCN1CCC(=C(c3ccccc3)c3ccc(Cl)cc3)CC1)C2` [Compound 149, 4,5-dihydro-1-methyl-5-[3-[4-[(4-chlorophenyl)phenylmethylene]piperidin-1-yl]propyl] [1,2,4]triazolo[4,3,a]quinoxaline]: the IC50 at PAF receptor is 206 nM; on rabbit platelets, 1080 nM.
Consider `Cc1nnc2n1-c1ccccc1N(CCCN1CCC(=C(c3ccc(Cl)cc3)c3ccc(Cl)cc3)CC1)C2` [Compound 150, 4,5-dihydro-1-methyl-5-[3-[4-[bis(4-chlorophenyl)methylene]piperidin-1-yl]propyl] [1,2,4]triazolo[4,3,a]quinoxaline], for which the IC50 is 152 nM at PAF receptor and 937 nM on rabbit platelets.
For the compound `Cc1nnc2n1-c1ccccc1N(CCCN1CCC(=C(c3ccccc3)c3ccc(C(F)(F)F)cc3)CC1)C2` [Compound 151, 4,5-dihydro-1-methyl-5-[3-[4-[[4-(trifluoromethyl)phenyl]phenylmethylene]piperidin-1-yl]propyl] [1,2,4]triazolo[4,3,a]quinoxaline], the IC50 is 110 nM on PAF receptor and 1400 nM at rabbit platelets.
`Cc1nnc2n1-c1ccccc1N(CCCN1CCC(=C(c3ccccc3)c3cccc(Cl)c3)CC1)C2` [Compound 154, 4,5-dihydro-1-methyl-5-[3-[4-[(3-chlorophenyl)phenylmethylene]piperidin-1-yl]propyl] [1,2,4]triazolo[4,3,a]quinoxaline]: the values for the IC50 at PAF receptor and on rabbit platelets were 178 nM and 372 nM, respectively.
As to `Cc1nnc2n1-c1ccccc1N(CCCN1CCC(=C(c3cccc(Cl)c3)c3cccc(Cl)c3)CC1)C2` [Compound 155, 4,5-dihydro-1-methyl-5-[3-[4-[bis(3-chlorophenyl)methylene]piperidin-1-yl]propyl] [1,2,4]triazolo[4,3,a]quinoxaline], the 50% inhibitory concentration (IC50) on PAF receptor is 132 nM; on rabbit platelets, 2200 nM.
Consider `Cc1nnc2n1-c1ccccc1N(CCCN1CCC(=C(c3ccccc3)c3ccc(N(C)C)cc3)CC1)C2` [Compound 156, 4,5-dihydro-1-methyl-5-[3-[4-[(4-dimethylaminophenyl)phenyimethylene]piperidin-1-yl]propyl] [1,2,4]triazolo[4,3,a]quinoxaline], for which the IC50 at PAF receptor is 55.9 nM; at rabbit platelets, 1120 nM.
In the same order, the values of `Cc1cccc(C(=C2CCN(CCCN3Cc4nnc(C)n4-c4ccccc43)CC2)c2ccccc2)c1` [Compound 160, 4,5-dihydro-1-methyl-5-[3-[4-[phenyl(3-tolyl)methylene]piperidin-1-yl]propyl] [1,2,4]triazolo[4,3,a]quinoxaline] are 198 nM and 145 nM.
As to `Cc1nnc2n1-c1ccccc1N(CCCN1CCC(=C(c3ccco3)c3ccco3)CC1)C2` [Compound 161, 4,5-dihydro-1-methyl-5-[3-[4-[bis(2-furyl)methylene]piperidin-1-yl]propyl] [1,2,4]triazolo[4,3,a]quinoxaline], the IC50 at PAF receptor was 351 nM; on rabbit platelets, 1190 nM.
In the same order, the values of `Cc1nnc2n1-c1ccccc1N(CCCN1CCC(=C(c3ccccc3)c3ccc4ccccc4c3)CC1)C2` [Compound 163, 4,5-dihydro-1-methyl-5-[3-[4-[(2-naphthyl)phenylmethylene]piperidin-1-yl]propyl] [1,2,4]triazolo[4,3,a]quinoxaline] are 342 nM and 609 nM.
For the compound `Cc1nnc2n1-c1ccccc1N(CCCN1CCC(=C(c3ccccc3)c3cccs3)CC1)C2` [Compound 164, 4,5-dihydro-1-methyl-5-[3-[4-[phenyl(2-thienyl)methylene]piperidin-1-yl]propyl] [1,2,4]triazolo[4,3,a]quinoxaline], the IC50 at PAF receptor was 249 nM; at rabbit platelets, 747 nM.
With `Cc1nnc2n1-c1ccccc1N(CCCN1CCC(=C(c3cccs3)c3cccs3)CC1)C2` [Compound 165, 4,5-dihydro-1-methyl-5-[3-[4-[bis(2-thienyl)methylene]piperidin-1-yl]propyl] [1,2,4]triazolo[4,3,a]quinoxaline], the IC50 was 820 nM on PAF receptor and 1520 nM at rabbit platelets.
On to `CCc1nnc2n(CCCN3CCC(c4c[nH]c5ccccc45)CC3)c3ccccc3n12` [Compound 193, 3-ethyl-9-[3-[4-(3-indolyl)piperidin-1-yl]propyl]-9H-[1,2,4]triazolo[4,3-a]benzimidazole fumaric acid salt], for which the values for the half-inhibitory concentration (IC50) on PAF receptor and at rabbit platelets were 5340 nM and 1550 nM, respectively.
On to `CCCc1nnc2n(CCCN3CCC(c4c[nH]c5ccccc45)CC3)c3ccccc3n12` [Compound 194, 3-propyl-9-[3-[4-(3-indolyl)piperidin-1-yl]propyl]-9H-[1,2,4]triazolo[4,3-a]benzimidazole fumaric acid salt], for which the values for the 50% inhibitory concentration (IC50) at PAF receptor and on rabbit platelets were 1980 nM and 80.8 nM, respectively.
For `Cc1nnc2n(CCCN3CCC(c4c[nH]c5ccc(Cl)cc45)CC3)c3ccccc3n12` [Compound 195, 3-methyl-9-[3-[4-(5-chloro-3-indolyl)piperidin-1-yl]propyl]-9H-[1,2,4]triazolo[4,3-a] benzimidazole], the results for the IC50 on PAF receptor and at rabbit platelets were 246 nM and 313 nM, respectively.
With `Cc1nnc2n(CCCN3CCC(c4c[nH]c5ccc(F)cc45)CC3)c3ccccc3n12` [Compound 196, 3-methyl-9-[3-[4-(5-fluoro-3-indolyl)piperidin-1-yl]propyl]-9H-[1,2,4]triazolo[4,3-a]benzimidazole], the IC50 at PAF receptor was 557 nM; on rabbit platelets, 30.2 nM.
Taken in the same sequence, the figures for `Cc1ccc2[nH]cc(C3CCN(CCCn4c5ccccc5n5c(C)nnc45)CC3)c2c1` [Compound 197, 3-methyl-9-[3-[4-(5-methyl-3-indolyl)piperidin-1-yl]propyl]-9H-[1,2,4]triazolo[4,3-a]benzimidazole] were 75 nM and 586 nM.
